From US11779602B2, “Methods of use for CAR T cells” (ENDOCYTE, INC., priority 2018, dated 2023)

Key:
[1] = test system: FR+ cell lines (MDA-MB-231, KB, HOS-FRα, THP1-FRβ, OV90); assay: Co-culture at 10 nM EC17, varying E/T ratios: specific lysis and Th1 cytokines; format: cell-based, human; conditions: 10 nM EC17, ≥1:1 E/T ratios, 48 hours
Protocol: (§1) After 24 hours of co-culture, supernatants were harvested to determine tumor cell killing. To study the kinetics of T cell activation and FR correlation in vitro (FIGS. 60A-L), co-cultures were carried out in FR+/− cell lines at varying E/T ratios (1:27, 1:9, 1:3, 1:1, 3:1) in the continuous presence of 10 nM EC17. The kinetics of tumor cell killing were quantified after 16 and 48 hours of co-culture. Meanwhile, a portion of the supernatants was taken after 44 hours of co-culture for measurement of IFNγ, IL-2 and TNFα. Using Promega's CytoTox 96® LDH assay kit, target cell killing was quantified and expressed as specific lysis (%) which was normalized to basal levels in the absence of EC17 at defined E/T ratios. The LEGENDplex™ human Th1 cytokine panel (BioLegend, San Diego, Calif.) was used to determine CAR-T cell derived cytokines.
Specific lysis (%) was quantified after 16 and 48 hours of co-culture, and Th1 cytokines (IFNγ, IL-2, TNFα) in culture media were measured after 44 hours of co-culture. […] It generally took a longer time (48 hours) and a higher E/T ratio (≥1:1) to see significant activity in the lowest FR-expressing OV90 cells (FIGS. 60A-G). The high FR-expressing KB cells responded […] to cause significant cell death (FIG. 60F). […]

FR-negative HOS-143b = assay: Co-culture at 10 nM EC17, varying E/T ratios: specific lysis; format: cell-based, human; conditions: 10 nM EC17, 48 hours
Protocol: as §1
Specific lysis (%) was quantified after 16 and 48 hours of co-culture, and Th1 cytokines (IFNγ, IL-2, TNFα) in culture media were measured after 44 hours of co-culture. […] It generally took a longer time (48 hours) and a higher E/T ratio (≥1:1) to see significant activity in the lowest FR-expressing OV90 cells (FIGS. 60A-G). The high FR-expressing KB cells responded […] to cause significant cell death (FIG. 60F).

HOS-FRα tumor = assay: CRS toxicity and sodium fluorescein rescue in HOS-FRα tumor-bearing mice; format: in vivo
Protocol: All animal care and use were performed according to NIH guidelines and in compliance with protocols approved by the Purdue University Animal Use and Care Committee. Female 4 to 5-week-old NOD/SCID gamma (NSG™) mice (stock number: 005557) were purchased from The Jackson Laboratory (Bar Harbor, Me.). Unless specifically indicated, all animals were maintained on a FA-deficient diet (TestDiet, St. Louis, Mo.) upon arrival and throughout the study. To establish subcutaneous xenografts, MDA-MB-231 and HOS-FRα were implanted in the right flank region at 2.5×10^6 and 1×10^6 cells per animal, respectively. For intravenous xenografts, THP1-FRβ cells were inoculated at 5×10^6 cells per animal. Subcutaneous tumors were measured 2-3 times per week with a caliper and calculated using the ellipsoidal formula (length×width^2)/2. […] All animal doses (CAR-T cells, EC17, sodium fluorescein) were given intravenously.
Depending on the CAR-T cell dose and how EC17 is administered, tumor-bearing mice receiving FITC-specific CAR-T cells can experience severe CRS and varying degrees of body weight loss. Therefore, a CRS grading system (0-5 scale) was developed to empirically assess CRS toxicity from animals' gross morphology and social behavior to allow for better timing of CRS rescue. While grades 0 and 5 indicated normal (no CRS) or death (due to severe CRS), respectively, grades 1, 2, and 3-4 were considered mild, light-to-moderate, and severe CRS (FIG. 57A). In addition, all EC17 doses were intentionally given towards the end of any given day to allow potential CRS symptoms to develop overnight. On the days immediately following each EC17 dose, animals were scored and rescue agents such as sodium fluorescein, folic acid and leucovorin were used to mitigate CRS toxicity. In this particular instance, a batch of E2 CAR-T cells with a high EGFRt+CD4/CD8 ratio (˜93:7) was given to HOS-FRα tumor-bearing mice at a mixture of ˜2.5 million CD8 and ˜33 million CD4 on day 0 (FIG. 57B). […]

NC1=NC2N=CC(CNc3ccc(C(=O)N[C@@H](CCC(=O)NCCNC(=S)Nc4ccc(-c5c6ccc(=O)cc-6oc6cc(O)ccc56)c(C(=O)O)c4)C(=O)O)cc3)=NC2C(=O)N1 (stereo partly shown) [EC17, FA-(γ)-ethylenediamine-FITC]
specific lysis response [1]: all FR+ cancer cells responded after 48 hours of co-culture | specific lysis response (FR-negative HOS-143b): essentially unharmed | CRS grade (0-5 scale) (HOS-FRα tumor; day 13, after EC17 500 nmol/kg on day 12): 3 grade | CRS grade (0-5 scale) (HOS-FRα tumor; days 4 and 11, after EC17 500 and 100 nmol/kg on days 3 and 10, ~35 million CAR-T cells): 1-2 grade
